# Data as given in patent US11033604B2, “Reagents and methods for treating bacterial infection” (priority 2018, dated 2021).
# Positions of bridges follow the written chain, without caps; N, C: chain ends. Non-standard residues stand in square brackets, D forms with d. No end group written: not given here.
# Key:
# [1] = test system: P. aeruginosa PAO1 pFap biofilms; assay: In situ ThT assay of Fap amyloid in P. aeruginosa biofilms; format: cell-based; settings: LB medium, 37° C., 48 h
# Description: FIG. 15. Action of synthetic α-sheet peptides in the P. aeruginosa system. […] Error bars indicate standard deviation of the mean of at least three replicates. Significance values are p<0.05: *, p<0.01: **, p<0.001: ***.
# The strain used in these experiments is a fap-overexpressing mutant of P. aeruginosa PAO1 WT called PAO1 pFap. The overexpression is generated by cloning the entire fap operon into a host expression vector, which is then transformed into PAO1 WT. […] For in situ assays, overnight cultures from a single colony of freshly transformed PAO1 pFap were used to inoculate 96 well plates in the presence of synthetic α-sheet peptides in LB medium. As a control, biofilms of the deletion strain PAO1 Δfap were grown under the same conditions. Plates were covered and incubated at 37° C. for 48 h. After incubation, planktonic cells and media were gently removed from the biofilms by pipetting. The biofilms were rinsed once with PBS prior to staining with 20 μM ThT. Stained biofilms were resuspended by pipetting and sonication, and the fluorescence of ThT was measured at 448/485 nm in a plate reader.
# [2] = test system: S. aureus MN8 biofilms; assay: ThT fluorescence assay of amyloid formation in S. aureus MN8 biofilm cultures; format: cell-based, Staphylococcus aureus; settings: for Effect on amyloid fibril formation in S. aureus biofilms (ThT fluorescence, FIG. 1B): MN8 and SH1000 WT strains, particularly MN8; for Effect on amyloid fibril formation in S. aureus biofilms (ThT fluorescence, FIG. 1B) / Reduction of amyloid fibril formation (ThT fluorescence): 24 h, 37° C.; for Reduction of amyloid fibril formation (ThT fluorescence): S. aureus MN8 biofilm, peptide 80 μM unless otherwise noted, vs peptide-free control
# Description: We developed a novel protocol to identify amyloid fibril formation during biofilm development in two S. aureus strains—SH1000 WT, a rsbU^+ laboratory strain^27, and MN8, a clinical strain isolated from the human urogenital tract (Table 1). After 24 hours of batch growth in microtiter plates, biofilms were washed and incubated with Thioflavin T (ThT), and the resulting fluorescence signals served as a proxy for the extent of PSM fibril formation in the EM (FIG. 1A). Next, we utilized this assay to test α-sheet amyloid inhibitor designs and control peptides (sequences provided in Table 2) in batch biofilm cultures. The first inhibitor used is AP90 (Alternating Peptide #90, referred to as α1 previously^25,26). […] The AP401 and AP407 designs display similar spectral features by CD, except that AP401 has a positive signal in the random coil region (FIG. 7). AP401 has the same sequence as AP90 but with reversed chirality in the strands and turn, thus the D-amino acids give rise to an approximate mirror image CD spectrum relative to AP90. AP407 is a variant of AP90 with a disulfide bond. An unstructured random coil peptide (RC) and a β-hairpin (β) are used as structural controls.
# Designed and control peptides were added to the growth medium prior to inoculation, and biofilms were allowed to grow for 24 hours at 37° C. Planktonic cells were removed and the remaining biofilms were assayed for amyloid content using ThT. […] The disulfide-linked peptide design, AP407, reduced the amyloid fibril formation by 46% and 56% in the MN8 and SH1000 WT strains, respectively. In contrast, the random coil and β-sheet control peptides were ineffective.
# Overnight cultures of S. aureus (see Table 1 for a list of strains used in this study) were spun down and re-suspended in fresh Luria-Bertani (LB) media to an optical density of 0.1 (600 nm). These cultures were then mixed with reconstituted peptide (or water, in the case of controls) and aliquoted in quadruplicate into wells of a clear 48-well plate (Corning, TC-treated polystyrene). The final concentration of peptide in each well was 80 μM, unless otherwise noted. Plates were covered and biofilms were grown at 37° C. for 24 hours with gentle rocking. At this time, medium and planktonic cells were removed from wells using a vacuum and the remaining adherent biofilms were rinsed once with PBS (BupH™, Thermo Scientific). Thioflavin T (ThT), an established fluorescent label for amyloid fibrils^40, was then added to each well at a concentration of 22 μM and biofilms were incubated statically for 4 hours at room temperature. The solution was then removed from the wells and PBS was added with vigorous pipetting to detach biofilms from the plate surface. Plates were shaken at high speed for 1 minute on a plate shaker to detach any remaining biofilm material and homogenize the samples. The detached biofilm suspensions were transferred to a 96-well black-walled plate (Corning, TC-treated polystyrene) and ThT fluorescence was read at 438/495 nm on a Perkin-Elmer Enspire™ plate reader. Fluorescence measurements were corrected by subtracting the background intensity of identical samples without ThT. For calculation of live:dead cell ratios, biofilm suspensions were prepared as described above and cells were stained with a 1:1 mixture of Syto9 and propidium iodide (LIVE/DEAD BacLight™ Bacterial Viability Kit, Thermo Scientific). After 15 minutes of incubation at room temperature, fluorescence ratios of the two dyes were determined using a Perkin-Elmer Enspire™ plate reader.
# [3] = test system: S. mutans UA159 biofilms; assay: ThT assay for S. mutans biofilms (plate); format: cell-based, Streptococcus mutans; settings: 28 h, vs control
# Description: (§1) FIG. 16. Synthetic α-sheet peptides as a novel anti-biofilm agent for the dental pathogen, S. mutans. A) ThT fluorescence of S. mutans biofilms decreases upon addition of synthetic α-sheet peptides AP193, AP407, and AP90. […] D) synthetic α-sheet peptides added to S. mutans grown on hydroxyapatite ceramic particles led to significant decreases in ThT fluorescence.
# The peptides AP90, AP407, AP193, P411, and P1 were screened for their ability to inhibit amyloid fibril formation using an optimized ThT assay for S. mutans biofilms. Briefly, S. mutans UA159 overnight cultures were diluted in BHI medium with 30 mM sucrose and 1% (v/v) EC Oxyrase(R) to ensure an oxygen-limited environment. Inocula were then mixed with inhibitors in water, or only water for blank conditions. Biofilms were cultivated at 37° C. in 96 well plates. After 28 h, planktonic cells and media were aspirated. Biofilms were rinsed once with PBS and then resuspended in a solution of 22 μM ThT in PBS. Stained biofilm suspensions were transferred to a new microtiter plate and their fluorescence was measured in a plate reader.
# Several synthetic peptides caused significant suppression in the amyloid content of S. mutans biofilms, and the effect was specific to those with α-sheet structure. AP193 at 40 μM decreased ThT fluorescence by 33% (p=0.007). […] AP90 caused a 16% decrease in ThT fluorescence at 85 μM (p=0.017).
# [4] = test system: S. mutans biofilms on hydroxyapatite; assay: ThT assay of S. mutans biofilms grown on ceramic-hydroxyapatite particles; format: cell-based, Streptococcus mutans; settings: 24 h
# Description: as §1
# To assess peptide inhibition of amyloid fibrils in S. mutans adhered to tooth-like surfaces, biofilms were grown on ceramic-hydroxyapatite particles. Hydroxyapatite is the primary mineral present in the structure of a tooth, so this assay is a more physiologically relevant model of S. mutans accumulation. ThT fluorescence of adhered biofilms was determined after 24 h of growth. Synthetic α-sheet peptides were added to medium and hydroxyapatite ceramic particles prior to cell growth. […] Both AP193 monomer and dimer caused significant decreases in ThT fluorescence (23% and 63%, respectively; FIG. 16D).
# [5] = test system: PSMα1
# Description: FIG. 6. […] Error bars represent the standard error of the mean.
substance,measurement,setting,value
"RGEmNlCwMNEYSGWcMnLkMGR (RGE[dM]N[dL]C[dW]MNEYSGW[dC]M[dN]L[dK]MGR; disulfide 7-16 (inferred)) [AP407, variant of AP90 with a disulfide bond]",Amyloid formation in biofilms (ThT),[1],significantly inhibit amyloid formation
same,"Effect on amyloid fibril formation in S. aureus biofilms (ThT fluorescence, FIG. 1B)",[2],significant reduction in amyloid fibril formation
same,Reduction of amyloid fibril formation (ThT fluorescence),[2],46%
same,Decrease in ThT fluorescence,[3]; 85 μM,42%
"RGEmNlSwMNEYSGWtMnLkMGR (RGEMNLSWMNEYSGWTMNLKMGR; not fully specified (residues 4, 6, 8, 16, 18, 20); printed as RGEmNlSwMNEYSGWtMnLkMGR) [AP90]",Amyloid formation in biofilms (ThT),[1],significantly inhibit amyloid formation
same,Decrease in ThT fluorescence,[4]; 100 μM,20%
same,"Effect on amyloid fibril formation in S. aureus biofilms (ThT fluorescence, FIG. 1B)",[2],significant reduction in amyloid fibril formation
same,Reduction of amyloid fibril formation (ThT fluorescence),[2],47%
same,Fibril formation with increasing peptide concentration (FIG. 1C),"[2]; S. aureus MN8 biofilms, increasing concentrations in culture medium",decreased in a dose-dependent manner
same,Decrease in ThT fluorescence,[3]; 85 μM,16%
same,Change of binding affinity as PSMα1 converted to β-sheet,[5]; PSMα1 at 146 h vs end of lag phase,dropped by two orders of magnitude
RGEmNyFwMNEYYGWtMnCkMGR (RGE[dM]N[dY]F[dW]MNEYYGW[dT]M[dN]C[dK]MGR) [AP193],Amyloid formation in biofilms (ThT),[1],significantly inhibit amyloid formation
same,Decrease in ThT fluorescence,[4]; concentration not given,23%
same,Decrease in ThT fluorescence,[3]; 40 μM,33%
same,Binding of PSMα1 to peptide-functionalized beads,"[5]; PSMα1 pre-incubated 0, 24, 48 h",preferentially bound α-sheet rich PSMα1 (48 h) over earlier time points
